Measured values taken from patent US9802899B2, “Heterocyclic compounds as pesticides” (BAYER CROPSCIENCE AG, priority 2012, dated 2017).

test: Determination of the log P values by HPLC (formic acid method); type: physicochemical; settings: reversed-phase HPLC column (C 18), reversed-phase column (C 18), acidic range (pH 3.4), 55° C.
Method: 1) Description of Method for Determination of the Log P Values (Formic Acid Method)
Eluents for determination in the acidic range (pH 3.4):
Eluent A: acetonitrile+1 ml of formic acid/liter. Eluent B: water+0.9 ml of formic acid/liter.
The lambda max values were determined in the maxima of the chromatographic signals using the UV spectra from 200 nm to 400 nm.

chromatographic logP	Compound
2.27	O=C(Nc1ccn(-c2cccnc2Cl)n1)c1ccccc1I [Compound I-1-139, N-[1-(2-Chloropyridin-3-yl)-1H-pyrazol-3-yl]-2-iodobenzamide]
2.68	O=C(Nc1ccn(-c2nc(F)c(F)cc2F)n1)c1ccccc1Br [Compound I-1-164, 2-Bromo-N-[1-(3,5,6-trifluoropyridin-2-yl)-1H-pyrazol-3-yl]benzamide]
2.62	O=C(Nc1ccn(-c2ncnc(F)c2F)n1)c1ccccc1C(F)(F)F [Compound I-1-169, N-[1-(5,6-Difluoropyrimidin-4-yl)-1H-pyrazol-3-yl]-2-(trifluoromethyl)benzamide]
2.03	O=C(Nc1ccn(-c2nccnc2F)n1)c1ccccc1Cl [Compound I-1-174, 2-Chloro-N-[1-(3-fluoropyrazin-2-yl)-1H-pyrazol-3-yl]benzamide]

same assay, conditions: reversed-phase column (C 18), acidic range (pH 3.4), 55° C.

log P	Compound
2.09	Cc1nc(C)c(C(=O)Nc2ccn(-c3c(F)cccc3F)n2)s1 [Compound I-1-113]
2.58	Cc1nc(C(F)(F)F)c(C(=O)Nc2ccn(-c3c(F)cccc3F)n2)s1 [Compound I-1-114]
3.33	O=C(Nc1ccn(-c2c(F)cccc2F)n1)c1snc(Cl)c1Cl [Compound I-1-115]
2.53	Cc1nonc1C(=O)Nc1ccn(-c2c(F)cccc2F)n1 [Compound I-1-116]
3.40	O=C(Nc1ccn(-c2cc(Cl)ccc2Cl)n1)c1ccccc1Br [Compound I-1-119]
3.05	O=C(Nc1ccn(-c2c(Cl)cccc2Cl)n1)c1ccccc1C(F)(F)F [Compound I-1-120]
2.88	O=C(Nc1ccn(-c2c(Cl)cccc2Cl)n1)c1ccccc1Br [Compound I-1-122]
2.57	O=C(Nc1ccn(-c2c(Cl)cccc2Cl)n1)c1cccnc1C(F)(F)F [Compound I-1-124]
2.46	O=C(Nc1ccn(-c2ccccc2[N+](=O)[O-])n1)c1ccccc1Cl [Compound I-1-125]
1.96	CS(=O)(=O)c1ccccc1-n1ccc(NC(=O)c2ccccc2Cl)n1 [Compound I-1-126]
2.36	O=C(Nc1ccn(-c2ccccn2)n1)c1ccccc1Br [Compound I-1-127]
2.05	O=C(Nc1ccn(-c2ncccc2F)n1)c1ccccc1Cl [Compound I-1-129]
2.12	O=C(Nc1ccn(-c2ncccc2F)n1)c1ccccc1Br [Compound I-1-130]
1.99	O=C(Nc1ccn(-c2ncccc2F)n1)c1c(F)cccc1F [Compound I-1-132]
2.93	O=C(c1cccnc1C(F)(F)F)N(C(=O)c1cccnc1C(F)(F)F)c1ccn(-c2ncccc2F)n1 [Compound I-1-134]
2.41	O=C(Nc1ccn(-c2ncccc2Cl)n1)c1ccccc1C(F)(F)F [Compound I-1-135]
2.36	O=C(Nc1ccn(-c2ncccc2Cl)n1)c1ccccc1I [Compound I-1-138]
2.97	CC(=O)N(C(=O)c1ccccc1C(F)(F)F)c1ccn(-c2ncc(F)cc2F)n1 [Compound I-1-142]
2.32	O=C(Nc1ccn(-c2ncc(F)cc2F)n1)c1ccccc1Cl [Compound I-1-143]
2.36	O=C(Nc1ccn(-c2ncc(F)cc2F)n1)c1ccccc1Br [Compound I-1-144]
2.00	O=C(Nc1ccn(-c2ncc(F)cc2F)n1)c1ccccc1[N+](=O)[O-] [Compound I-1-147]
2.48	O=C(Nc1ccn(-c2ncc(F)cc2F)n1)c1ccccc1O [Compound I-1-148]
2.98	O=C(Nc1ccn(-c2ncc(F)cc2F)n1)c1ccccc1SC(F)(F)F [Compound I-1-149]
1.47	O=C(Nc1ccn(-c2ncc(F)cc2F)n1)c1ccccc1-n1cncn1 [Compound I-1-150]
2.02	O=C(Nc1ccn(-c2ncc(F)cc2F)n1)c1cccnc1C(F)(F)F [Compound I-1-151]

log P	Compound
1.72	O=C(Nc1ccn(-c2ncc(F)cc2F)n1)c1cccnc1Cl [Compound I-1-152]
1.96	O=C(Nc1ccn(-c2ncc(F)cc2F)n1)c1ccncc1C(F)(F)F [Compound I-1-153]
2.00	O=C(Nc1ccn(-c2ncc(F)cc2F)n1)c1cncnc1C(F)(F)F [Compound I-1-154]
2.35	O=C(Nc1ccn(-c2ncc(F)cc2F)n1)C1=C(C(F)(F)F)OCCS1 [Compound I-1-155]
2.31	Cn1cc(C(=O)Nc2ccn(-c3ncc(F)cc3F)n2)c(C(F)(F)F)c1 [Compound I-1-156]
2.33	Cc1noc(C(F)F)c1C(=O)Nc1ccn(-c2ncc(F)cc2F)n1 [Compound I-1-157]
2.36	Cn1nc(C(F)(F)F)c(C(=O)Nc2ccn(-c3ncc(F)cc3F)n2)c1F [Compound I-1-158]
3.06	O=C(Nc1ccn(-c2ncc(F)cc2F)n1)c1snc(Cl)c1Cl [Compound I-1-159]
1.91	Cc1nnsc1C(=O)Nc1ccn(-c2ncc(F)cc2F)n1 [Compound I-1-160]
2.78	O=C(Nc1ccn(-c2nc(F)c(F)cc2F)n1)c1ccccc1C(F)(F)F [Compound I-1-162]
2.64	O=C(Nc1ccn(-c2nc(F)c(F)cc2F)n1)c1ccccc1Cl [Compound I-1-163]
3.04	O=C(Nc1ccn(-c2nc(F)c(F)cc2F)n1)c1ccccc1I [Compound I-1-165]
2.51	O=C(Nc1ccn(-c2nc(F)c(F)cc2F)n1)c1c(F)cccc1F [Compound I-1-166]
3.88	O=C(Nc1ccn(-c2nc(F)c(F)cc2F)n1)c1ncccc1C(F)(F)F [Compound I-1-167]
1.72	O=C(Nc1ccn(-c2ncccn2)n1)c1ccccc1Br [Compound I-1-168]
2.46	O=C(Nc1ccn(-c2ncnc(F)c2F)n1)c1ccccc1Br [Compound I-1-170]
2.29	O=C(Nc1ccn(-c2ncnc(F)c2F)n1)c1c(F)cccc1F [Compound I-1-171]
2.24	O=C(Nc1ccn(-c2nccnc2F)n1)c1ccccc1C(F)(F)F [Compound I-1-173]
2.09	O=C(Nc1ccn(-c2nccnc2F)n1)c1ccccc1Br [Compound I-1-175]
2.18	O=C(Nc1ccn(-c2nccnc2F)n1)c1ccccc1I [Compound I-1-176]
1.94	O=C(Nc1ccn(-c2nccnc2F)n1)c1c(F)cccc1F [Compound I-1-177]
1.77	O=C(Nc1ccn(-c2nccnc2F)n1)c1ncccc1C(F)(F)F [Compound I-1-178]
2.13	CS(=O)(=O)c1ccccc1-n1ccc(NC(=O)c2ccccc2C(F)(F)F)n1 [Compound I-1-179]
2.00	CS(=O)(=O)c1ccccc1-n1ccc(NC(=O)c2cccnc2C(F)(F)F)n1 [Compound I-1-180]
1.86	CS(=O)(=O)c1ccccc1-n1ccc(NC(=O)c2c(F)cccc2F)n1 [Compound I-1-181]

log P	Compound
2.00	CS(=O)(=O)c1ccccc1-n1ccc(NC(=O)c2ccccc2Br)n1 [Compound I-1-182]
2.64	O=C(Nc1ccn(-c2ncc(F)cc2Cl)n1)c1ccccc1C(F)(F)F [Compound I-1-183]
2.10	CS(=O)(=O)c1ccccc1-n1ccc(NC(=O)c2ccccc2I)n1 [Compound I-1-184]
2.16	Cc1nn(C)c(C)c1C(=O)Nc1ccn(-c2ccccc2C(F)(F)F)n1 [Compound I-1-185]
3.41	O=C(Nc1ccn(-c2cccc(Cl)c2Cl)n1)c1ccccc1Br [Compound I-1-187]
3.38	O=C(Nc1ccn(-c2cccc(Cl)c2Cl)n1)c1ccccc1Cl [Compound I-1-188]
3.01	O=C(Nc1ccn(-c2cccc(F)c2F)n1)c1ccccc1Cl [Compound I-1-189]
4.04	O=C(Nc1ccn(-c2cc(F)c(F)cc2F)n1)c1ccccc1C(F)(F)F [Compound I-1-191]
3.42	O=C(Nc1ccn(-c2cc(F)c(F)cc2F)n1)c1cccnc1C(F)(F)F [Compound I-1-192]
3.73	O=C(Nc1ccn(-c2cc(F)c(F)cc2F)n1)c1ccccc1C(F)(F)F [Compound I-1-193]
3.99	O=C(Nc1ccn(-c2cc(F)c(F)cc2F)n1)c1ccccc1Br [Compound I-1-194]
3.94	O=C(Nc1ccn(-c2cc(F)c(F)cc2F)n1)c1ccccc1Cl [Compound I-1-195]
4.10	O=C(Nc1ccn(-c2cc(F)c(F)cc2F)n1)c1ccccc1I [Compound I-1-196]
3.51	O=C(Nc1ccn(-c2ccc(Cl)cc2Cl)n1)c1ccccc1C(F)(F)F [Compound I-1-197]
3.25	O=C(Nc1ccn(-c2ccc(Cl)cc2Cl)n1)c1ccccc1C(F)(F)F [Compound I-1-198]
3.44	O=C(Nc1ccn(-c2ccc(Cl)cc2Cl)n1)c1ccccc1Br [Compound I-1-199]
3.40	O=C(Nc1ccn(-c2ccc(Cl)cc2Cl)n1)c1ccccc1Cl [Compound I-1-200]
4.15	CCc1cc(NC(=O)c2ccccc2C(F)(F)F)nn1-c1ccc(F)cc1F [Compound I-1-201]
3.78	Cc1cc(NC(=O)c2ccccc2C(F)(F)F)nn1-c1ccc(F)cc1F [Compound I-1-202]
3.19	Cc1cc(NC(=O)c2cccnc2C(F)(F)F)nn1-c1ccc(F)cc1F [Compound I-1-203]
3.58	CCc1cc(NC(=O)c2cccnc2C(F)(F)F)nn1-c1ccc(F)cc1F [Compound I-1-204]
3.42	Cc1cc(NC(=O)c2c(F)cccc2F)nn1-c1ccc(F)cc1F [Compound I-1-206]
3.84	CCc1cc(NC(=O)c2c(F)cccc2F)nn1-c1ccc(F)cc1F [Compound I-1-207]
3.63	Cc1cc(NC(=O)c2ccccc2Br)nn1-c1ccc(F)cc1F [Compound I-1-208]
2.95	O=C(Nc1ccn(-c2ccc(F)cc2F)n1)c1ccccc1Br [Compound I-1-209]
